Assay results taken from patent US7365053B2, “Selective N-acylation of A82846 glygopeptides analogs” (priority 2000, dated 2008).
≈ marks a conversion by molar mass, not a printed value.

Legend:
[1] = test system: Enterococcus faecalis 2041; assay: Broth micro-dilution MIC; format: cell-based; conditions: BHI medium
Method: (§1) The compounds of the present invention have in vitro activity against Gram-positive pathogenic bacteria. The antibacterial activity of the present compounds is illustrated in Tables III and IV. The minimal inhibitory concentrations (MICs) were determined using a standard broth micro-dilution assay. Table IV presents a comparison of the activity of illustrative compounds against representative vancomycin-resistant and vancomycin-sensitive enterococci (Enterococcus faecium and Enterococcus faecalis), mean geometric MIC (mcg/mL), as determined by the standard broth microdilution assay.
(§2) Assays for antimicrobial activity were performed using microbroth susceptibility testing methods as described by the NCCLS (National Committee for Clinical Laboratories Standards. 1990. Approved standard M7-A2. Methods for dilution antimicrobial susceptibility testing for bacteria that grow aerobically, 2 ed., Villanova Pa.). Brain-heart infusion medium (BHI) was used for testing of enterococci, and NCCLS recommendations for medium were followed for other bacteria.

[2] = test system: Enterococcus faecalis 276; assay: Broth micro-dilution MIC; format: cell-based; conditions: BHI medium
Method: as §1, §2

[3] = test system: Enterococcus faecium 180-1; assay: Broth micro-dilution MIC; format: cell-based; conditions: BHI medium
Method: as §1, §2

[4] = test system: Enterococcus faecium 180; assay: Broth micro-dilution MIC; format: cell-based; conditions: BHI medium
Method: as §1, §2

[5] = test system: Enterococcus gallinarum 245; assay: Broth micro-dilution MIC; format: cell-based; conditions: BHI medium
Method: as §1, §2

[6] = test system: Escherichia coli EC14; assay: Broth micro-dilution MIC; format: cell-based
Method: as §1, §2

[7] = test system: Haemophilus influenzae RD; assay: Broth micro-dilution MIC; format: cell-based
Method: as §1, §2

[8] = test system: Staphylococcus aureus 446; assay: Broth micro-dilution MIC; format: cell-based
Method: as §1, §2

[9] = test system: Staphylococcus aureus 447; assay: Broth micro-dilution MIC; format: cell-based
Method: as §1, §2

[10] = test system: Staphylococcus aureus 489; assay: Broth micro-dilution MIC; format: cell-based
Method: as §1, §2

[11] = test system: Staphylococcus aureus 491; assay: Broth micro-dilution MIC; format: cell-based
Method: as §1, §2

[12] = test system: Staphylococcus aureus S13E; assay: Broth micro-dilution MIC; format: cell-based
Method: as §1, §2

[13] = test system: Staphylococcus aureus SA1199A; assay: Broth micro-dilution MIC; format: cell-based
Method: as §1, §2

[14] = test system: Staphylococcus aureus SA1199B; assay: Broth micro-dilution MIC; format: cell-based
Method: as §1, §2

[15] = test system: Staphylococcus aureus SA1199; assay: Broth micro-dilution MIC; format: cell-based
Method: as §1, §2

[16] = test system: Staphylococcus aureus X400; assay: Broth micro-dilution MIC; format: cell-based
Method: as §1, §2

[17] = test system: Staphylococcus aureus X778; assay: Broth micro-dilution MIC; format: cell-based
Method: as §1, §2

[18] = test system: Staphylococcus epidermidis 270; assay: Broth micro-dilution MIC; format: cell-based
Method: as §1, §2

[19] = test system: Staphylococcus haemolyticus 105; assay: Broth micro-dilution MIC; format: cell-based
Method: as §1, §2

[20] = test system: Staphylococcus haemolyticus 415; assay: Broth micro-dilution MIC; format: cell-based
Method: as §1, §2

[21] = test system: Streptococcus pneumoniae P1; assay: Broth micro-dilution MIC; format: cell-based
Method: as §1, §2

[22] = test system: Streptococcus pyogenes C203; assay: Broth micro-dilution MIC; format: cell-based
Method: as §1, §2

[23] = test system: vancomycin-resistant enterococci; assay: In vitro activity against enterococci, broth microdilution; format: cell-based, Enterococcus faecium and Enterococcus faecalis; conditions: representative vancomycin-resistant enterococci (E. faecium and E. faecalis); BHI medium
Method: as §1, §2

[24] = test system: vancomycin-sensitive enterococci; assay: as above; format: cell-based, Enterococcus faecium and Enterococcus faecalis; conditions: representative vancomycin-sensitive enterococci (E. faecium and E. faecalis); BHI medium
Method: as §1, §2

Q: What does the source list for `CNC(CC(C)C)C(=O)NC1C(=O)NC(CC(N)=O)C(=O)NC2C(=O)NC3C(=O)NC(C(=O)NC(C(=O)O)c4cc(O)cc(O)c4-c4cc3ccc4O)C(OC3CC(C)(N)C(O)C(C)O3)c3ccc(c(Cl)c3)Oc3cc2cc(c3OC2OC(CO)C(O)C(O)C2OC2CC(C)(NC(=O)c3ccc(-c4ccccc4)cc3)C(O)C(C)O2)Oc2ccc(cc2Cl)C1O` (centres unmarked) [Example 1]?
A: MIC [1]: 0.125 µg/mL (≈ 0.0705 µM); MIC [2]: 0.5 µg/mL (≈ 0.282 µM); MIC [3]: ≦.06 μg/ml; MIC [4]: 0.25 µg/mL (≈ 0.141 µM); MIC [5]: 8 µg/mL (≈ 4.51 µM); MIC [6]: >64 µg/mL; MIC [7]: >64 µg/mL; MIC [8]: 2 µg/mL (≈ 1.13 µM); MIC [9]: 16 µg/mL (≈ 9.03 µM); MIC [10]: 0.5 µg/mL (≈ 0.282 µM); MIC [11]: 0.25 µg/mL (≈ 0.141 µM); MIC [12]: 2 µg/mL (≈ 1.13 µM); MIC [13]: 0.125 µg/mL (≈ 0.0705 µM); MIC [14]: 2 µg/mL (≈ 1.13 µM); MIC [15]: 2 µg/mL (≈ 1.13 µM); MIC [16]: 1 µg/mL (≈ 0.564 µM); MIC [17]: 1 µg/mL (≈ 0.564 µM); MIC [18]: 16 µg/mL (≈ 9.03 µM); MIC [19]: 1 µg/mL (≈ 0.564 µM); MIC [20]: 8 µg/mL (≈ 4.51 µM); MIC [21]: ≦.06 μg/ml; MIC [22]: ≦.06 μg/ml; Mean geometric MIC, Vancomycin Resistant Strains [23]: 11.3 µg/mL; Mean geometric MIC, Vancomycin Sensitive Strains [24]: 0.38 µg/mL

Q: For `CNC(CC(C)C)C(=O)NC1C(=O)NC(CC(N)=O)C(=O)NC2C(=O)NC3C(=O)NC(C(=O)NC(C(=O)O)c4cc(O)cc(O)c4-c4cc3ccc4O)C(OC3CC(C)(NC(=O)c4ccc(-c5ccccc5)cc4)C(O)C(C)O3)c3ccc(c(Cl)c3)Oc3cc2cc(c3OC2OC(CO)C(O)C(O)C2OC2CC(C)(N)C(O)C(C)O2)Oc2ccc(cc2Cl)C1O` (centres unmarked) [Example 2], which MIC [1] is on record?
A: 1 µg/mL (≈ 0.564 µM)

Q: And the MIC [2]?
A: 1 µg/mL (≈ 0.564 µM)

Q: And the MIC [3]?
A: 1 µg/mL (≈ 0.564 µM)

Q: And the MIC [4]?
A: 32 µg/mL (≈ 18.1 µM)

Q: And the MIC [5]?
A: >64 µg/mL

Q: And the MIC [6]?
A: >64 µg/mL

Q: What about the MIC [7] of the same compound?
A: >64 µg/mL

Q: What about the MIC [8] of the same compound?
A: 8 µg/mL (≈ 4.51 µM)

Q: What about the MIC [9] of the same compound?
A: 32 µg/mL (≈ 18.1 µM)

Q: What about the MIC [10] of the same compound?
A: 0.5 µg/mL (≈ 0.282 µM)

Q: And the MIC [11]?
A: 1 µg/mL (≈ 0.564 µM)

Q: And the MIC [12]?
A: 4 µg/mL (≈ 2.26 µM)

Q: And the MIC [13]?
A: 1 µg/mL (≈ 0.564 µM)

Q: And the MIC [14]?
A: 2 µg/mL (≈ 1.13 µM)

Q: And the MIC [15]?
A: 4 µg/mL (≈ 2.26 µM)

Q: What about the MIC [16] of the same compound?
A: 2 µg/mL (≈ 1.13 µM)

Q: And the MIC [17]?
A: 2 µg/mL (≈ 1.13 µM)

Q: And the MIC [18]?
A: 32 µg/mL (≈ 18.1 µM)

Q: What about the MIC [19] of the same compound?
A: 2 µg/mL (≈ 1.13 µM)

Q: And the MIC [20]?
A: >64 µg/mL

Q: What about the MIC [21] of the same compound?
A: ≦.06 μg/ml

Q: And the MIC [22]?
A: ≦.06 μg/ml

Q: And the “Mean geometric MIC, Vancomycin Resistant Strains” value [23]?
A: >25 µg/mL

Q: And the “Mean geometric MIC, Vancomycin Sensitive Strains” value [24]?
A: 0.38 µg/mL

Q: Which results are given for `CCCCCCCC(=O)N(C)C(CC(C)C)C(=O)NC1C(=O)NC(CC(N)=O)C(=O)NC2C(=O)NC3C(=O)NC(C(=O)NC(C(=O)O)c4cc(O)cc(O)c4-c4cc3ccc4O)C(OC3CC(C)(N)C(O)C(C)O3)c3ccc(c(Cl)c3)Oc3cc2cc(c3OC2OC(CO)C(O)C(O)C2OC2CC(C)(N)C(O)C(C)O2)Oc2ccc(cc2Cl)C1O` (centres unmarked) [Example 10, 1′-N-octanoyl-A82846B]?
A: MIC [1]: 0.25 µg/mL (≈ 0.145 µM); MIC [2]: 0.25 µg/mL (≈ 0.145 µM); MIC [3]: ≦.06 μg/ml; MIC [4]: 32 µg/mL (≈ 18.6 µM); MIC [5]: 2 µg/mL (≈ 1.16 µM); MIC [6]: >64 µg/mL; MIC [8]: 1 µg/mL (≈ 0.582 µM); MIC [9]: 1 µg/mL (≈ 0.582 µM); MIC [10]: 0.25 µg/mL (≈ 0.145 µM); MIC [11]: 0.25 µg/mL (≈ 0.145 µM); MIC [12]: 0.5 µg/mL (≈ 0.291 µM); MIC [13]: 0.125 µg/mL (≈ 0.0727 µM); MIC [14]: 0.5 µg/mL (≈ 0.291 µM); MIC [15]: 0.5 µg/mL (≈ 0.291 µM); MIC [16]: 0.5 µg/mL (≈ 0.291 µM); MIC [17]: 0.5 µg/mL (≈ 0.291 µM); MIC [18]: 0.5 µg/mL (≈ 0.291 µM); MIC [19]: 1 µg/mL (≈ 0.582 µM); MIC [20]: 16 µg/mL (≈ 9.31 µM); MIC [21]: ≦.06 μg/ml; MIC [22]: ≦.06 μg/ml; Mean geometric MIC, Vancomycin Resistant Strains [23]: 90 µg/mL; Mean geometric MIC, Vancomycin Sensitive Strains [24]: 2.3 µg/mL
